Experimental data taken from US4528188A, “Polysaccharide PS-A obtained from barrenwort deriving from plants belonging to the genus Epimedium, process for preparation thereof and phylactic and immunostimulating agents comprising said polysaccharide PS-A effective component” (priority 1981, dated 1985).

Key:
E. coli ML 4707 [1] = experiment: Combination with antibiotics, normal state (Table 11); format: in vivo, E. coli; male mice of the ICR/JCL strain; conditions: only ampicillin, 12.5 mg/kg twice
Description: A sample was administered subcutaneously to the back of each of 5-weeks-old male mice of the ICR/JCL strain having a body weight of about 25 g (each group consisting of 10 mice) once a day continuously for five days (5 times in total). PS was given to a control group. On the sixth day, 1.0×10^7 cells of E. coli ML 4707 was challenged thereto by the intraperitoneal injection. 12.5 mg/kg of ampicillin (Ampicillin sodium for injection; produced by Toyama Kagaku Co., Ltd., Japan) was administered to each mouse twice (directly after the intraperitoneal injection and 4 hours thereafter). Seven days after the challenge, viable count was examined.

E. coli ML 4707 [2] = experiment: Combination with an antibiotic in the immunosuppressive state (Table 12); format: in vivo, E. coli; female mice of the ICR/JCL strain; conditions: only ampicillin, 6.25 mg/kg s.c.; cyclophosphamide
Description: A sample was administered subcutaneously to the back of each of 5-weeks-old female mice of the ICR/JCL strain having a body weight of about 25 g (each group consisting of 10 mice) once a day continuously for four days (4 times in total). PS was given to a control group. On the first day, 200 mg/kg of cyclophosphamide was injected to them by the intraperitoneal injection. On the next day of the final administration (i.e. on the fifth day), 1.0×10^6 cells of E. coli ML 4707 was challenged thereto by the intraperitoneal injection. One hour thereafter, 6.25 mg/kg of ampicillin (Ampicillin-sodium for injection; produced by Toyama Kagaku Co., Ltd., Japan) was administered to the back of each mouse by the subcutaneous injection. Seven days after the challenge, viable count was examined.

With `CC1(C)S[C@@H]2[C@H](NC(=O)[C@H](N)c3ccccc3)C(=O)N2[C@H]1C(=O)O` [ampicillin] the Viable count (E. coli ML 4707 [1]) was 20% and the Viable count (E. coli ML 4707 [2]) was 10%.
